# Data: ChEMBL document CHEMBL1201862, “PubChem BioAssay data set” (2004)
#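 Cultured in 96-well plates, cells were exposed to test compound for 48 hours across five concentrations. GI50 marks 50% less growth.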 Calls of active or inactive are those of the source. No stated cut-off is given here; in the data, active = GI50 up to about 1.1 µM and inactive = higher.
# How the values were obtained:
# Assay in all cases: DTP human tumour cell line panel, 48 h
# 786-0 = test system: 786-0
# A549 = test system: A549
# ACHN = test system: ACHN
# CAKI-1 = test system: CAKI-1
# COLO 205 = test system: COLO 205
# DLD-1 = test system: DLD-1
# DMS-273 = test system: DMS-273
# HCC 2998 = test system: HCC 2998
# HCT-116 = test system: HCT-116
# HCT-15 = test system: HCT-15
# HL-60 = test system: HL-60
# HOP-18 = test system: HOP-18
# HOP-62 = test system: HOP-62
# HOP-92 = test system: HOP-92
# HT-29 = test system: HT-29
# IGROV-1 = test system: IGROV-1
# K562 = test system: K562
# KM-20L2 = test system: KM-20L2
# KM12 = test system: KM12
# LOX IMVI = test system: LOX IMVI
# LXFL 529 = test system: LXFL 529
# M14 = test system: M14
# MOLT-4 = test system: MOLT-4
# Malme-3M = test system: Malme-3M
# NCI-H226 = test system: NCI-H226
# NCI-H23 = test system: NCI-H23
# NCI-H460 = test system: NCI-H460
# NCI-H522 = test system: NCI-H522
# OVCAR-3 = test system: OVCAR-3
# OVCAR-4 = test system: OVCAR-4
# OVCAR-5 = test system: OVCAR-5
# OVCAR-8 = test system: OVCAR-8
# RPMI-8226 = test system: RPMI-8226
# RXF 631 = test system: RXF 631
# SF-268 = test system: SF-268
# SF-295 = test system: SF-295
# SF-539 = test system: SF-539
# SK-MEL-28 = test system: SK-MEL-28
# SK-MEL-2 = test system: SK-MEL-2
# SK-OV-3 = test system: SK-OV-3
# SN12C = test system: SN12C
# SNB-19 = test system: SNB-19
# SNB-75 = test system: SNB-75
# SR = test system: SR
# SW-620 = test system: SW-620
# TK-10 = test system: TK-10
# UACC-257 = test system: UACC-257
# UACC-62 = test system: UACC-62
# UO-31 = test system: UO-31
# XF498 = test system: XF498
# A498 = test system: A498
# CCRF-CEM = test system: CCRF-CEM
# EKVX = test system: EKVX
# M19-MEL = test system: M19-MEL
# RXF 393 = test system: RXF 393
# SK-MEL-5 = test system: SK-MEL-5
# U-251 = test system: U-251
structure (smiles),measurement,setting,value
CC(=O)CC(=O)CCCC(=O)Nc1ccc(Cl)cc1Cl,GI50,786-0,> 100000 nM (inactive)
same,GI50,A549,> 100000 nM (inactive)
same,GI50,ACHN,> 100000 nM (inactive)
same,GI50,CAKI-1,> 100000 nM (inactive)
same,GI50,COLO 205,> 100000 nM (inactive)
same,GI50,DLD-1,> 100000 nM (inactive)
same,GI50,DMS-273,> 100000 nM (inactive)
same,GI50,HCC 2998,> 100000 nM (inactive)
same,GI50,HCT-116,> 100000 nM (inactive)
same,GI50,HCT-15,> 100000 nM
same,GI50,HL-60,> 100000 nM (inactive)
same,GI50,HOP-18,25200 nM (inactive)
same,GI50,HOP-62,> 100000 nM (inactive)
same,GI50,HOP-92,> 100000 nM (inactive)
same,GI50,HT-29,> 100000 nM (inactive)
same,GI50,IGROV-1,> 100000 nM (inactive)
same,GI50,K562,> 100000 nM (inactive)
same,GI50,KM-20L2,> 100000 nM (inactive)
same,GI50,KM12,> 100000 nM (inactive)
same,GI50,LOX IMVI,> 100000 nM (inactive)
same,GI50,LXFL 529,> 100000 nM (inactive)
same,GI50,M14,> 100000 nM (inactive)
same,GI50,MOLT-4,> 100000 nM (inactive)
same,GI50,Malme-3M,> 100000 nM (inactive)
same,GI50,NCI-H226,> 100000 nM (inactive)
same,GI50,NCI-H23,> 100000 nM (inactive)
same,GI50,NCI-H460,> 100000 nM (inactive)
same,GI50,NCI-H522,> 100000 nM (inactive)
same,GI50,OVCAR-3,> 100000 nM (inactive)
same,GI50,OVCAR-4,> 100000 nM (inactive)
same,GI50,OVCAR-5,> 100000 nM (inactive)
same,GI50,OVCAR-8,> 100000 nM (inactive)
same,GI50,RPMI-8226,> 100000 nM (inactive)
same,GI50,RXF 631,> 100000 nM (inactive)
same,GI50,SF-268,> 100000 nM (inactive)
same,GI50,SF-295,> 100000 nM (inactive)
same,GI50,SF-539,> 100000 nM (inactive)
same,GI50,SK-MEL-28,> 100000 nM (inactive)
same,GI50,SK-MEL-2,> 100000 nM (inactive)
same,GI50,SK-OV-3,> 100000 nM (inactive)
same,GI50,SN12C,> 100000 nM (inactive)
same,GI50,SNB-19,> 100000 nM (inactive)
same,GI50,SNB-75,> 100000 nM (inactive)
same,GI50,SR,> 100000 nM (inactive)
same,GI50,SW-620,> 100000 nM (inactive)
same,GI50,TK-10,> 100000 nM (inactive)
same,GI50,UACC-257,> 100000 nM (inactive)
same,GI50,UACC-62,> 100000 nM (inactive)
same,GI50,UO-31,> 100000 nM (inactive)
same,GI50,XF498,> 100000 nM (inactive)
CCN(CC)CCOc1ccc(C(=C2CCCCC2)c2ccc(OCCN(CC)CC)cc2)cc1,GI50,786-0,1390 nM (inactive)
same,GI50,A498,1780 nM (inactive)
same,GI50,A549,1620 nM (inactive)
same,GI50,ACHN,1750 nM (inactive)
same,GI50,CAKI-1,1960 nM (inactive)
same,GI50,CCRF-CEM,931 nM (active)
same,GI50,COLO 205,1340 nM (inactive)
same,GI50,DLD-1,1930 nM (inactive)
same,GI50,DMS-273,1520 nM (inactive)
same,GI50,EKVX,1740 nM (inactive)
same,GI50,HCC 2998,1300 nM (inactive)
same,GI50,HCT-116,1250 nM (inactive)
same,GI50,HCT-15,1540 nM
same,GI50,HL-60,299 nM (active)
same,GI50,HOP-18,2890 nM (inactive)
same,GI50,HOP-62,1770 nM (inactive)
same,GI50,HOP-92,2020 nM (inactive)
same,GI50,HT-29,1100 nM (active)
same,GI50,IGROV-1,1710 nM (inactive)
same,GI50,K562,267 nM (active)
same,GI50,KM-20L2,1270 nM (inactive)
same,GI50,KM12,1270 nM (inactive)
same,GI50,LOX IMVI,1230 nM (inactive)
same,GI50,LXFL 529,1690 nM (inactive)
same,GI50,M14,1550 nM (inactive)
same,GI50,M19-MEL,1710 nM (inactive)
same,GI50,MOLT-4,612 nM (active)
same,GI50,Malme-3M,1720 nM (inactive)
same,GI50,NCI-H226,2150 nM (inactive)
same,GI50,NCI-H23,1860 nM (inactive)
same,GI50,NCI-H460,1470 nM (inactive)
same,GI50,NCI-H522,1760 nM (inactive)
same,GI50,OVCAR-3,1720 nM (inactive)
same,GI50,OVCAR-4,2310 nM (inactive)
same,GI50,OVCAR-5,1790 nM (inactive)
same,GI50,OVCAR-8,1730 nM (inactive)
same,GI50,RPMI-8226,700 nM (active)
same,GI50,RXF 393,1590 nM (inactive)
same,GI50,RXF 631,1460 nM (inactive)
same,GI50,SF-268,1680 nM (inactive)
same,GI50,SF-295,1850 nM (inactive)
same,GI50,SF-539,1550 nM (inactive)
same,GI50,SK-MEL-28,1320 nM (inactive)
same,GI50,SK-MEL-2,1930 nM (inactive)
same,GI50,SK-MEL-5,1580 nM (inactive)
same,GI50,SK-OV-3,1870 nM (inactive)
same,GI50,SN12C,1660 nM (inactive)
same,GI50,SNB-19,1730 nM (inactive)
same,GI50,SNB-75,1450 nM (inactive)
same,GI50,SW-620,1250 nM (inactive)
same,GI50,TK-10,1500 nM (inactive)
same,GI50,U-251,1640 nM (inactive)
same,GI50,UACC-257,1870 nM (inactive)
same,GI50,UO-31,1590 nM (inactive)
same,GI50,XF498,1070 nM (active)
